Data: ChEMBL document CHEMBL5634151, “Anti-adipogenic action of a novel oxazole derivative through activation of AMPK pathway” (Eur J Med Chem, 2023)
Calls of active or inactive are those of the source. No cut-off for these calls is given here.

Experiments:
3T3-L1 [1] = assay: Inhibition of MDI-cocktail induced adipogenic differentiation in mouse 3T3-L1 pre-adipocyte cells assessed as reduction in C/EBPalpha protein expression at 0.5 to 5 uM by Western blot analysis; type: functional, cell-based; settings: dose 0.5-5 µM
3T3-L1 [2] = assay: Inhibition of MDI-cocktail induced adipogenic differentiation in mouse 3T3-L1 pre-adipocyte cells assessed as reduction in CEBPalpha gene expression at 5 uM by qRT-PCR analysis; type: functional, cell-based
C3H 10T1/2 = assay: Anti-adipogenic activity in MDI-cocktail differentiated mouse C3H 10T1/2 cells assessed as reduction in adipogenic differentiation at 5 uM measured after 3 to 7 days by Oil Red O staining based microscopic analysis; type: functional, cell-based; settings: time 3-7 day
3T3-L1 [3] = assay: Anti-adipogenic activity in MDI-cocktail differentiated mouse 3T3-L1 pre-adipocyte cells assessed as reduction in PPARgamma protein expression at 5 uM measured for 3 to 7 days by immunoblotting analysis; type: functional, cell-based; settings: time 3-7 day
3T3-L1 [4] = assay: Anti-adipogenic activity in MDI-cocktail differentiated mouse 3T3-L1 pre-adipocyte cells assessed as reduction in FASN protein expression at 5 uM measured for 3 to 7 days by immunoblotting analysis; type: functional, cell-based; settings: time 3-7 day
3T3-L1 [5] = assay: Activation of AMPK pathway in MDI-cocktail differentiated mouse 3T3-L1 pre-adipocyte cells assessed as reversal of 6-(4-(2-(piperidin-1-yl)ethoxy)phenyl)-3-(pyridin-4yl)pyrazolo[1,5-a]pyrimidine induced AMPK inhibition at 5 uM incubated for 72 hrs by immunoblotting analysis; type: cell-based; settings: filed as activator
3T3-L1 [6] = assay: Induction of cell cycle arrest in MDI-cocktail differentiated mouse 3T3-L1 pre-adipocyte cells assessed as accumulation of cells at G1 phase at 3 to 5 uM incubated for 16 hrs by propidium iodide staining based flow cytometry analysis; type: functional; settings: dose 3-5 µM
3T3-L1 [7] = assay: Induction of maximum respiration during early phase in MDI-cocktail differentiated mouse 3T3-L1 pre-adipocyte cells 5 uM incubated for 72 hrs by Seahorse XFp flux analyzer; type: functional, cell-based
3T3-L1 [8] = assay: Induction of mitochondrial membrane potential in mouse 3T3-L1 mature adipocytes assessed as increase in TMRE fluorescence at 1 to 5 uM incubated for 24 hrs by TMRE staining based fluorescence microscopic analysis; type: functional, cell-based; settings: dose 1-5 µM
Syrian golden hamster [9] = assay: Anti-obesity activity in high-fat diet induced Syrian golden hamster model assessed as reduction in weight gain at 50 mg/kg, po administered for 7 days and measured daily; type: functional, organism-based; settings: Mesocricetus auratus, time 7.0 day
Syrian golden hamster [10] = assay: Anti-obesity activity in high-fat diet induced Syrian golden hamster model assessed as rescue of normal liver weight at 25 to 50 mg/kg, po administered for 7 days; type: functional, organism-based; settings: Mesocricetus auratus, dose 25-50 mg/kg, time 7.0 day
Syrian golden hamster [11] = assay: Hepatoprotective activity in high-fat diet induced Syrian golden hamster model assessed as reduction in serum ALT level at 25 to 50 mg/kg, po administered for 7 days; type: functional, organism-based; settings: Mesocricetus auratus, dose 25-50 mg/kg, time 7.0 day
Mesocricetus auratus = assay: In vivo activation of AMPK in high-fat diet induced Syrian golden hamster model assessed as increase in AMPK phosphorylation at Th172 residue in eWAT at 50 mg/kg, po administered for 7 days by Western blot analysis; type: functional, organism-based; settings: time 7.0 day
3T3-L1 [12] = assay: Cytotoxicity against mouse 3T3-L1 pre-adipocyte cells assessed as reduction in cell viability >20 uM incubated for 48 hrs by MTT assay; type: toxicity, cell-based; settings: 3t3-l1, 48 h

Cc1ccc(-c2cnc(-c3ccc[n+](Cc4cccc(C)c4)c3)o2)cc1.[Br-]
inhibition (3T3-L1 [1]): Active | inhibition (3T3-L1 [2]): Active | Activity (C3H 10T1/2): Active | Activity (3T3-L1 [3]): Active | Activity (3T3-L1 [4]): Active | Activity (3T3-L1 [5]): Active | Activity (3T3-L1 [6]): Active | Activity (3T3-L1 [7]): Active | Activity (3T3-L1 [8]): Active | Activity (Syrian golden hamster [9]): Active | Activity (Syrian golden hamster [10]): inactive | Activity (Syrian golden hamster [11]): Active | Activity (Mesocricetus auratus): Active | Activity (3T3-L1 [12]): Non-Toxic
